Assay: method code SF-AS, from DOI: 10.1002/(sici)1521-3897(199907)341:5<499::aid-prac499>3.0.co;2-7
Conditions: pH 7.4

SMILES	logD
Nc1nnnn1-c1cccc(Cl)c1	1.44
Nc1nnnn1-c1cccc2ccccc12	1.72
Nc1nnnn1-c1ccccc1	0.69
Cc1ccc(C)c(-n2nnnc2N)c1	1.46
Nc1nnnn1-c1cccc(O)c1	0.56
Nc1nnnn1-c1ccc(Cl)cc1	1.41
Cc1ccccc1-n1nnnc1N	0.93
Nc1nnnn1-c1cc(Cl)ccc1Cl	1.61
Nc1nnnn1-c1cc(Cl)c(Cl)cc1Cl	2.3
Nc1nnnn1-c1ccc(F)cc1	0.75
COc1ccccc1-n1nnnc1N	0.56
Nc1nnnn1-c1ccc(Br)cc1	1.64
COc1ccc(-n2nnnc2N)cc1	0.85
Nc1nnnn1-c1ccc([N+](=O)[O-])cc1	0.77
Nc1nnnn1-c1ccc(O)cc1	0.33
Nc1nnnn1-c1ccc2ccccc2c1	2.08
Nc1nnnn1-c1cccc([N+](=O)[O-])c1	0.67
Cc1ccc(-n2nnnc2N)cc1Cl	1.89
Nc1nnnn1-c1ccc(Cl)c(Cl)c1	2.06
CCOc1ccc(-n2nnnc2N)cc1	1.32
Nc1nnnn1-c1c(Cl)cccc1Cl	1.56
Nc1nnnn1-c1ccccc1Cl	0.87
Cc1cccc(-n2nnnc2N)c1	1.24
Nc1nnnn1-c1ccc(Cl)cc1Cl	1.63
